Assay results as given in ChEMBL document CHEMBL2203009, “Synthesis of isoindole and benzoisoindole derivatives of teicoplanin pseudoaglycon with remarkable antibacterial and antiviral activities” (Bioorg Med Chem Lett, 2012).
pEC50: −log10 of the molar value. Values after ≈ are worked out from the molar mass of the structure shown.

Legend:
[1] = tested on: Influenza B virus; test: Antiviral activity against Influenza B virus (B/Hong Kong/05/1972) […] infected in MDCK cells assessed as inhibition of virus-induced cytopathic effect; assay type: functional, cell-based; settings: B/Hong Kong/05/1972, MDCK
[2] = tested on: Staphylococcus aureus; test: Antimicrobial activity against methicillin-resistant Staphylococcus aureus ATCC 33591; assay type: functional
[3] = tested on: Human alphaherpesvirus 1; test: Antiviral activity against thymidine kinase deficient and acyclovir-resistant HSV1 KOS infected in HEL cells assessed as inhibition of virus-induced cytopathic effect; assay type: functional, organism-based; settings: Human alphaherpesvirus 1, KOS
[4] = Toxicity in HEL cells assessed as induction of cell morphology changes; assay type: cell-based; settings: human
[5] = tested on: H3N2 subtype; test: Antiviral activity against Influenza A virus (A/Hong Kong/7/1987(H3N2)) […] infected in MDCK cells assessed as inhibition of virus-induced cytopathic effect; assay type: functional, organism-based
[6] = Toxicity in MDCK cells assessed as induction of cell morphology changes; assay type: cell-based, Canis lupus familiaris; settings: dog
[7] = tested on: Influenza A virus; test: Antiviral activity against Influenza A virus (A/Puerto Rico/8/1934(H1N1)) H1N1 infected in MDCK cells assessed as inhibition of virus-induced cytopathic effect; assay type: functional, organism-based
[8] = tested on: Vesicular stomatitis virus; test: Antiviral activity against Vesicular stomatitis virus infected in HEL cells assessed as inhibition of virus-induced cytopathic effect; assay type: functional, organism-based
[9] = tested on: Staphylococcus epidermidis; test: Antimicrobial activity against Staphylococcus epidermidis ATCC 35984 biofilms; assay type: functional
[10] = tested on: Vaccinia virus; test: Antiviral activity against Vaccinia virus infected in HEL cells assessed as inhibition of virus-induced cytopathic effect; assay type: functional, organism-based; settings: Orthopoxvirus vaccinia
[11] = tested on: Bacillus subtilis; test: Antimicrobial activity against Bacillus subtilis ATCC 6633; assay type: functional
[12] = tested on: Staphylococcus epidermidis; test: Antimicrobial activity against Staphylococcus epidermidis over-expressing MecA; assay type: functional
[13] = tested on: Human alphaherpesvirus 2; test: Antiviral activity against HSV2 G infected in HEL cells assessed as inhibition of virus-induced cytopathic effect; assay type: functional, organism-based; settings: Human alphaherpesvirus 2, strain G
[14] = tested on: Enterococcus faecalis; test: Antimicrobial activity against Enterococcus faecalis 15376 over-expressing vanA; assay type: functional
[15] = tested on: Staphylococcus aureus; test: Antimicrobial activity against methicillin-sensitive Staphylococcus aureus ATCC 29213; assay type: functional
[16] = tested on: Enterococcus faecalis; test: Antimicrobial activity against Enterococcus faecalis ATCC 29212; assay type: functional
[17] = tested on: Human alphaherpesvirus 1; test: Antiviral activity against HSV1 KOS infected in HEL cells assessed as inhibition of virus-induced cytopathic effect; assay type: functional, organism-based; settings: Human alphaherpesvirus 1, KOS
[18] = tested on: Enterococcus faecalis; test: Antimicrobial activity against Enterococcus faecalis ATCC 51299 over-expressing vanB; assay type: functional

Structure (SMILES): CC(=O)N[C@H]1[C@H](O[C@@H]2c3ccc(c(Cl)c3)Oc3cc4cc(c3O)Oc3ccc(cc3Cl)C[C@H]3NC(=O)[C@H](n5cc6ccccc6c5Sc5ncccn5)c5ccc(O)c(c5)Oc5cc(O)cc(c5)[C@H](NC3=O)C(=O)N[C@H]4C(=O)N[C@H]3C(=O)N[C@@H]2C(=O)N[C@H](C(=O)O)c2cc(O)cc(O)c2-c2cc3ccc2O)O[C@H](CO)[C@@H](O)[C@@H]1O
- pEC50 [1]: < 4.00
- MBC [2]: 8 µg/mL (≈ 4.96 µM)
- MIC [2]: 0.0313 µg/mL (≈ 0.0194 µM)
- pEC50 [3]: 4.30
- MCC [4]: > 100 µM
- pEC50 [5]: < 4.00
- MCC [6]: 20 µM
- pEC50 [7]: < 4.00
- pEC50 [8]: < 4.00
- MBC [9]: 1 µg/mL (≈ 0.62 µM)
- MIC [9]: 0.0165 µg/mL (≈ 0.0102 µM)
- pEC50 [10]: ≤ 4.24
- MBC [11]: 0.5 µg/mL (≈ 0.31 µM)
- MIC [11]: 0.0625 µg/mL (≈ 0.0388 µM)
- MBC [12]: 64 µg/mL (≈ 39.7 µM)
- MIC [12]: 4 µg/mL (≈ 2.48 µM)
- pEC50 [13]: 4.35
- MBC [14]: 256 µg/mL (≈ 159 µM)
- MIC [14]: 0.0625 µg/mL (≈ 0.0388 µM)
- MBC [15]: 0.5 µg/mL (≈ 0.31 µM)
- MIC [15]: 0.0313 µg/mL (≈ 0.0194 µM)
- MBC [16]: 256 µg/mL (≈ 159 µM)
- MIC [16]: 0.0313 µg/mL (≈ 0.0194 µM)
- pEC50 [17]: 4.33
- MBC [18]: 256 µg/mL (≈ 159 µM)
- MIC [18]: 1 µg/mL (≈ 0.62 µM)

Structure (SMILES): CC(=O)N[C@H]1[C@H](O[C@@H]2c3ccc(c(Cl)c3)Oc3cc4cc(c3O)Oc3ccc(cc3Cl)C[C@H]3NC(=O)[C@H](n5cc6cc7ccccc7cc6c5Sc5ncccn5)c5ccc(O)c(c5)Oc5cc(O)cc(c5)[C@H](NC3=O)C(=O)N[C@H]4C(=O)N[C@H]3C(=O)N[C@@H]2C(=O)N[C@H](C(=O)O)c2cc(O)cc(O)c2-c2cc3ccc2O)O[C@H](CO)[C@@H](O)[C@@H]1O
- pEC50 [1]: < 4.30
- MBC [2]: 0.5 µg/mL (≈ 0.301 µM)
- MIC [2]: 0.015 µg/mL (≈ 0.00902 µM)
- pEC50 [3]: 4.35
- MCC [4]: ≥ 100 µM
- pEC50 [5]: 6.27
- MCC [6]: 13 µM
- pEC50 [7]: 6.27
- pEC50 [8]: < 4.00
- MBC [9]: 0.5 µg/mL (≈ 0.301 µM)
- MIC [9]: 0.015 µg/mL (≈ 0.00902 µM)
- pEC50 [10]: 5.00
- MBC [11]: 2 µg/mL (≈ 1.2 µM)
- MIC [11]: 0.0313 µg/mL (≈ 0.0188 µM)
- MBC [12]: 256 µg/mL (≈ 154 µM)
- MIC [12]: 0.015 µg/mL (≈ 0.00902 µM)
- pEC50 [13]: 4.57
- MBC [14]: 256 µg/mL (≈ 154 µM)
- MIC [14]: 0.5 µg/mL (≈ 0.301 µM)
- MBC [15]: 0.5 µg/mL (≈ 0.301 µM)
- MIC [15]: 0.015 µg/mL (≈ 0.00902 µM)
- MBC [16]: 256 µg/mL (≈ 154 µM)
- MIC [16]: 0.015 µg/mL (≈ 0.00902 µM)
- pEC50 [17]: 4.40
- MBC [18]: 256 µg/mL (≈ 154 µM)
- MIC [18]: 1 µg/mL (≈ 0.602 µM)

Structure (SMILES): CC(=O)N[C@H]1[C@H](O[C@@H]2c3ccc(c(Cl)c3)Oc3cc4cc(c3O)Oc3ccc(cc3Cl)C[C@H]3NC(=O)[C@H](n5cc6ccccc6c5S[C@@H]5O[C@H](COC(C)=O)[C@@H](OC(C)=O)[C@H](OC(C)=O)[C@H]5OC(C)=O)c5ccc(O)c(c5)Oc5cc(O)cc(c5)[C@H](NC3=O)C(=O)N[C@H]4C(=O)N[C@H]3C(=O)N[C@@H]2C(=O)N[C@H](C(=O)O)c2cc(O)cc(O)c2-c2cc3ccc2O)O[C@H](CO)[C@@H](O)[C@@H]1O
- pEC50 [1]: < 4.00
- MBC [2]: 128 µg/mL (≈ 68.6 µM)
- MIC [2]: 0.0313 µg/mL (≈ 0.0168 µM)
- pEC50 [3]: 4.40
- MCC [4]: ≥ 100 µM
- pEC50 [5]: < 4.00
- MCC [6]: 20 µM
- pEC50 [7]: < 4.00
- pEC50 [8]: 4.32
- MBC [9]: 8 µg/mL (≈ 4.29 µM)
- MIC [9]: 2 µg/mL (≈ 1.07 µM)
- pEC50 [10]: 4.35
- MBC [11]: 64 µg/mL (≈ 34.3 µM)
- MIC [11]: 0.25 µg/mL (≈ 0.134 µM)
- MBC [12]: 256 µg/mL (≈ 137 µM)
- MIC [12]: 2 µg/mL (≈ 1.07 µM)
- pEC50 [13]: 4.96
- MBC [14]: 256 µg/mL (≈ 137 µM)
- MIC [14]: 4 µg/mL (≈ 2.15 µM)
- MBC [15]: 16 µg/mL (≈ 8.58 µM)
- MIC [15]: 0.0625 µg/mL (≈ 0.0335 µM)
- MBC [16]: 256 µg/mL (≈ 137 µM)
- MIC [16]: 1 µg/mL (≈ 0.536 µM)
- pEC50 [17]: 4.40
- MBC [18]: 256 µg/mL (≈ 137 µM)
- MIC [18]: 4 µg/mL (≈ 2.15 µM)

Structure (SMILES): CC(=O)N[C@H]1[C@H](O[C@@H]2c3ccc(c(Cl)c3)Oc3cc4cc(c3O)Oc3ccc(cc3Cl)C[C@H]3NC(=O)[C@H](n5cc6ccccc6c5S[C@@H]5O[C@H](CO)[C@@H](O)[C@H](O)[C@H]5O)c5ccc(O)c(c5)Oc5cc(O)cc(c5)[C@H](NC3=O)C(=O)N[C@H]4C(=O)N[C@H]3C(=O)N[C@@H]2C(=O)N[C@H](C(=O)O)c2cc(O)cc(O)c2-c2cc3ccc2O)O[C@H](CO)[C@@H](O)[C@@H]1O
- pEC50 [1]: < 4.00
- MBC [2]: 1 µg/mL (≈ 0.589 µM)
- MIC [2]: 0.0075 µg/mL (≈ 0.00442 µM)
- pEC50 [3]: ≤ 4.35
- MCC [4]: ≥ 100 µM
- pEC50 [5]: < 4.00
- MCC [6]: < 0.8 µM
- pEC50 [7]: < 4.00
- pEC50 [8]: 4.28
- MBC [9]: 0.5 µg/mL (≈ 0.295 µM)
- MIC [9]: 0.0075 µg/mL (≈ 0.00442 µM)
- pEC50 [10]: 4.35
- MBC [11]: 1 µg/mL (≈ 0.589 µM)
- MIC [11]: 0.125 µg/mL (≈ 0.0737 µM)
- MBC [12]: 32 µg/mL (≈ 18.9 µM)
- MIC [12]: 0.015 µg/mL (≈ 0.00884 µM)
- pEC50 [13]: 4.40
- MBC [14]: 256 µg/mL (≈ 151 µM)
- MIC [14]: 0.0625 µg/mL (≈ 0.0368 µM)
- MBC [15]: 1 µg/mL (≈ 0.589 µM)
- MIC [15]: 0.0313 µg/mL (≈ 0.0185 µM)
- MBC [16]: 256 µg/mL (≈ 151 µM)
- MIC [16]: 2 µg/mL (≈ 1.18 µM)
- pEC50 [17]: 4.35
- MBC [18]: 256 µg/mL (≈ 151 µM)
- MIC [18]: 1 µg/mL (≈ 0.589 µM)

Structure (SMILES): CC(=O)N[C@H]1[C@H](O[C@@H]2c3ccc(c(Cl)c3)Oc3cc4cc(c3O)Oc3ccc(cc3Cl)C[C@H]3NC(=O)[C@H](n5cc6cc7ccccc7cc6c5Sc5ccccc5)c5ccc(O)c(c5)Oc5cc(O)cc(c5)[C@H](NC3=O)C(=O)N[C@H]4C(=O)N[C@H]3C(=O)N[C@@H]2C(=O)N[C@H](C(=O)O)c2cc(O)cc(O)c2-c2cc3ccc2O)O[C@H](CO)[C@@H](O)[C@@H]1O
- pEC50 [1]: < 4.00
- MBC [2]: 0.5 µg/mL (≈ 0.301 µM)
- MIC [2]: 0.25 µg/mL (≈ 0.151 µM)
- pEC50 [3]: < 4.70
- MCC [4]: 100 µM
- pEC50 [5]: < 4.00
- MCC [6]: < 0.8 µM
- pEC50 [7]: < 4.00
- pEC50 [8]: < 4.70
- MBC [9]: 0.5 µg/mL (≈ 0.301 µM)
- MIC [9]: 0.0313 µg/mL (≈ 0.0189 µM)
- pEC50 [10]: < 4.70
- MBC [11]: 4 µg/mL (≈ 2.41 µM)
- MIC [11]: 2 µg/mL (≈ 1.2 µM)
- MBC [12]: 256 µg/mL (≈ 154 µM)
- MIC [12]: 0.0313 µg/mL (≈ 0.0189 µM)
- pEC50 [13]: < 4.70
- MBC [14]: 32 µg/mL (≈ 19.3 µM)
- MIC [14]: 0.125 µg/mL (≈ 0.0753 µM)
- MBC [15]: 1 µg/mL (≈ 0.602 µM)
- MIC [15]: 0.0313 µg/mL (≈ 0.0189 µM)
- MBC [16]: 256 µg/mL (≈ 154 µM)
- MIC [16]: 1 µg/mL (≈ 0.602 µM)
- pEC50 [17]: < 4.70
- MBC [18]: 256 µg/mL (≈ 154 µM)
- MIC [18]: 2 µg/mL (≈ 1.2 µM)
